Laboratory results taken from patent US10208033B2, “β-carboline, dihydro-β-carboline and tetrahydro-β-carboline alkaloid derivatives and preparation methods same and use in aspects of preventing and treating plant viruses, fungicides and insecticides” (NANKAI UNIVERSITY, priority 2013, dated 2019).
Like-named read-outs stand apart in the source and are kept apart here.

Experiments:
[1] = tested on: tobacco mosaic virus (TMV); assay: Anti-TMV in vitro effect (half-leaf soaking); assay type: cell-based, tobacco mosaic virus (host Nicotiana tabacum L.cv.Xanthi NN)
[2] = tested on: tobacco mosaic virus (TMV); assay: Anti-TMV in vivo inactivation; set-up: species or system tobacco mosaic virus (host Nicotiana tabacum L.cv.Xanthi NN)
[3] = tested on: tobacco mosaic virus (TMV); assay: Anti-TMV in vivo therapeutic effect; set-up: species or system tobacco mosaic virus (host Nicotiana tabacum L.cv.Xanthi NN)
[4] = tested on: tobacco mosaic virus (TMV); assay: Anti-TMV in vivo protective effect; set-up: species or system tobacco mosaic virus (host Nicotiana tabacum L.cv.Xanthi NN)
cucumber fusarium wilt = assay: Fungicidal (bactericidal) activity in vitro, PDA colony diameter; assay type: cell-based
Cercospora arachidicola = assay: as above; assay type: cell-based; conditions: 50 mg/kg
Macrophoma kawatsukai = assay: as above; assay type: cell-based; conditions: 50 mg/kg
Alternaria solani = assay: as above; assay type: cell-based; conditions: 50 mg/kg
Fusarium graminearumt = assay: microbe, parasite or virus in culture; assay type: cell-based; conditions: 50 mg/kg
potato late blight = assay: microbe, parasite or virus in culture; assay type: cell-based
Sclerotinia scleotiorum = assay: Fungicidal (bactericidal) activity in vitro, PDA colony diameter; assay type: cell-based; conditions: 50 mg/kg
Botrytis cinerea = assay: as above; assay type: cell-based; conditions: 50 mg/kg
Rhizoctonia solani = assay: as above; assay type: cell-based; conditions: 50 mg/kg
Phytophthora capsici = assay: as above; assay type: cell-based; conditions: 50 mg/kg
Fusarium fujikuroi = assay: as above; assay type: cell-based; conditions: 50 mg/kg
Rhizoctonia cereali = assay: as above; assay type: cell-based; conditions: 50 mg/kg
Bipolaria maydis = assay: organism not typed; assay type: cell-based; conditions: 50 mg/kg
[5] = tested on: Colletotrichum orbiculare; assay: Fungicidal (bactericidal) activity in vitro, PDA colony diameter; assay type: cell-based; conditions: 50 mg/kg
armyworms = assay type: in vivo; conditions: concentration 600 mg/kg
cotton bollworms = assay: whole plant or invertebrate
Experimental: Experimental method of cotton bollworms: feed and drug mixing method: measure 3 mL of prepared solution and add it to about 27 g of newly prepared feed, thereby obtaining needed concentration through dilution by 10 times.

mosquito larvae = assay: whole plant or invertebrate
Summary of the method: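 Compound dissolved in acetone (or other solvent) to a 1000 ppm stock and diluted in water to 5 ppm. Ten Culex pipiens pallens larvae at the start of the fourth instar, laboratory-reared, added per beaker; solvent-only aqueous control.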

| Structure (SMILES) | Relative inhibition rate (%) In vitro activity ([1]; treatment dose 100 μg/mL) [%] | Relative inhibition rate (%) In vitro activity ([1]; treatment dose 500 μg/mL) [%] | Relative inhibition rate (%) In vivo inactivation ([2]; treatment dose 100 μg/mL) [%] | Relative inhibition rate (%) In vivo inactivation ([2]; treatment dose 500 μg/mL) [%] | Relative inhibition rate (%) In vivo therapy ([3]; treatment dose 100 μg/mL) [%] | Relative inhibition rate (%) In vivo therapy ([3]; treatment dose 500 μg/mL) [%] | Relative inhibition rate (%) In vivo protection ([4]; treatment dose 100 μg/mL) [%] | Relative inhibition rate (%) In vivo protection ([4]; treatment dose 500 μg/mL) [%] | Bactericidal activity (%) Cercospora arachidicola (Cercospora arachidicola) [%] | Bactericidal activity (%) Macrophoma kawatsukai (Macrophoma kawatsukai) [%] | Bactericidal activity (%) Alternaria solani (Alternaria solani) [%] | Bactericidal activity (%) Fusarium graminearumt (Fusarium graminearumt) [%] | Bactericidal activity (%) potato late blight (potato late blight) [%] | Bactericidal activity (%) Sclerotinia scleotiorum (Sclerotinia scleotiorum) [%] | Bactericidal activity (%) Botrytis cinerea (Botrytis cinerea) [%] | Bactericidal activity (%) Rhizoctonia solani (Rhizoctonia solani) [%] | Bactericidal activity (%) Phytophthora capsici (Phytophthora capsici) [%] | Bactericidal activity (%) Fusarium fujikuroi (Fusarium fujikuroi) [%] | Bactericidal activity (%) Rhizoctonia cereali (Rhizoctonia cereali) [%] | Bactericidal activity (%) Bipolaria maydis (Bipolaria maydis) [%] | other results |
| --- | --- | --- | --- | --- | --- | --- | --- | --- | --- | --- | --- | --- | --- | --- | --- | --- | --- | --- | --- | --- | --- |
| C[C@@H]1N[C@H](C(=O)NN=Cc2ccccn2)Cc2c1[nH]c1ccccc21 [Ic-17, (1S, 3S)—N′-(pyridine-2-methylene)-1-methyl-2,3,4,9-tetrahydropyridino [3,4-b] indol-3-formylhydrazine] | 0 | 32.7 | 9.2 | 38.9 | 0 | 36.8 | 0 | 31.4 | 23.5 | 75.0 | 20.0 | 20.7 | 12.0 | 5.9 | 36.4 | 21.1 | 18.4 | 21.4 | 41.2 | 16.0 | Bactericidal activity (%) Cucumber fusarium wilt (cucumber fusarium wilt; 50 mg/kg): 23.1%; Bactericidal activity (%) Colletotrichum orbiculare [5]: 25.9%; Armyworm Mortality (%) (armyworms): 25%; Cotton bollworm Mortality (%) (cotton bollworms; in vivo): 20%; Mosquito larvae Mortality (%) (mosquito larvae; in vivo): 50%; Corn borer Mortality (%) (corn borers; in vivo): 20% |
| C[C@@H]1N[C@H](C(=O)NN=Cc2ccco2)Cc2c1[nH]c1ccccc21 [Ic-18, (1S, 3S)—N′-(furan-2-methylene)-1-methyl-2,3,4,9-tetrahydropyridino [3,4-b] indol-3-formylhydrazine] | 15.4 | 48.8 | 18.2 | 54.6 | 9.3 | 44.2 | 11.5 | 47.5 | 52.9 | 69.4 | 35.0 | 6.9 | 36.0 | 64.7 | 81.8 | 32.9 | 39.5 | 28.6 | 68.6 | 20.0 | Bactericidal activity (%) Cucumber fusarium wilt (cucumber fusarium wilt): 11.5%; Bactericidal activity (%) Colletotrichum orbiculare [5]: 33.3%; Armyworm Mortality (%) (armyworms): 10%; Cotton bollworm Mortality (%) (cotton bollworms; concentration 600 mg/kg): 20%; Mosquito larvae Mortality (%) (mosquito larvae; concentration 10 mg/kg, 24 h): 25%; Corn borer Mortality (%) (corn borers; concentration 600 mg/kg): 15% |
| C[C@@H]1N[C@H](C(=O)NN=Cc2ncc[nH]2)Cc2c1[nH]c1ccccc21 [Ic-21, (1S, 3S)—N′-(imidazole-2-methylene)-1-methyl-2,3,4,9-tetrahydropyridino [3,4-b] indol-3-formylhydrazine] | 0 | 42.4 | 21.3 | 49.6 | 12.6 | 45.3 | 18.5 | 48.1 | 47.1 | 97.2 | 15.0 | 27.6 | 24.0 | 35.3 | 36.4 | 15.8 | 18.4 | 28.6 | 64.7 | 12.0 | Bactericidal activity (%) Cucumber fusarium wilt (cucumber fusarium wilt; 50 mg/kg): 34.6%; Bactericidal activity (%) Colletotrichum orbiculare [5]: 25.9%; Armyworm Mortality (%) (armyworms): 40%; Cotton bollworm Mortality (%) (cotton bollworms; concentration 600 mg/kg): 45%; Mosquito larvae Mortality (%) (mosquito larvae; concentration 10 mg/kg, 24 h): 85%; Corn borer Mortality (%) (corn borers; concentration 600 mg/kg): 35% |
| C/C=C/C=NNC(=O)[C@@H]1Cc2c([nH]c3ccccc23)[C@H](C)N1 [Ic-22, (1S, 3S)—N′-((E)-but-2-enylidene)-1-methyl-2,3,4,9-tetrahydropyridino [3,4-b] indol-3-formylhydrazine] | 0 | 35.2 | 8.5 | 47 | 0 | 33.2 | 6.7 | 37.1 | 29.4 | 52.8 | 30.0 | 20.7 | 32.0 | 41.2 | 40.9 | 6.6 | 31.6 | 14.3 | 64.7 | 36.0 | Bactericidal activity (%) Cucumber fusarium wilt (cucumber fusarium wilt; 50 mg/kg): 26.9%; Bactericidal activity (%) Colletotrichum orbiculare [5]: 22.2%; Armyworm Mortality (%) (armyworms): 40%; Cotton bollworm Mortality (%) (cotton bollworms; concentration 600 mg/kg): 20%; Mosquito larvae Mortality (%) (mosquito larvae; concentration 10 mg/kg, 24 h): 85%; Corn borer Mortality (%) (corn borers; concentration 600 mg/kg): 50% |
| CCCC=NNC(=O)[C@@H]1Cc2c([nH]c3ccccc23)[C@H](C)N1 [Ic-23, (1S, 3S)—N′-butylidene-1-methyl-2,3,4,9-tetrahydropyridino [3,4-b] indol-3-formylhydrazine] | 7.8 | 32.6 | 13.4 | 47.1 | 10.4 | 41.3 | 11.3 | 40.5 | 17.6 | 69.4 | 45.0 | 6.9 | 20.0 | 64.7 | 9.1 | 6.6 | 5.3 | 0.0 | 43.1 | 12.0 | Bactericidal activity (%) Cucumber fusarium wilt (cucumber fusarium wilt; 50 mg/kg): 19.2%; Bactericidal activity (%) Colletotrichum orbiculare [5]: 14.8%; Armyworm Mortality (%) (armyworms): 15%; Cotton bollworm Mortality (%) (cotton bollworms; concentration 600 mg/kg): 10%; Mosquito larvae Mortality (%) (mosquito larvae; concentration 10 mg/kg, 24 h): 35%; Corn borer Mortality (%) (corn borers; concentration 600 mg/kg): 10% |
| CCCCCCCC=NNC(=O)[C@@H]1Cc2c([nH]c3ccccc23)[C@H](C)N1 [Ic-24, (1S, 3S)—N′-octadien-1-methyl-2,3,4,9-tetrahydropyridino [3,4-b] indol-3-formylhydrazine] | 23.2 | 61.3 | 32.8 | 73.4 | 31.7 | 70.9 | 27.3 | 59.6 | 36.4 | 24.2 | 19.0 | 61.5 | 17.4 | 46.2 | 44.4 | 22.2 | 18.2 | 35.3 | 29.7 | 36.0 | Bactericidal activity (%) Cucumber fusarium wilt (cucumber fusarium wilt; 50 mg/kg): 9.1%; Bactericidal activity (%) Colletotrichum orbiculare [5]: 32.0%; Armyworm Mortality (%) (armyworms): 45%; Cotton bollworm Mortality (%) (cotton bollworms; concentration 600 mg/kg): 20%; Mosquito larvae Mortality (%) (mosquito larvae; concentration 5 mg/kg, 24 h): 10%; Mosquito larvae Mortality (%) (mosquito larvae; concentration 10 mg/kg, 24 h): 100%; Corn borer Mortality (%) (corn borers; concentration 600 mg/kg): 50% |
